Measurements published in PMC10382584, “Macrocyclization of linear molecules by deep learning to facilitate macrocyclic drug candidates discovery” (Nature Communications, 2023).

Experiments:
Experiment in all cases: biochemical
Parameters in all cases: DiscoveRx KINOMEscan competition binding, percent of DMSO control signal at 100 nM
Settings in all cases: read-out: Fig. 4a / Percent Control / Compound 1; percent of DMSO control, competition binding
[1] = biological target: T1, ABL1(F317L)-phosphorylated (Homo sapiens, UniProt P00519, F317L)
T1 construct: phosphorylated

[2] = biological target: T2, ABL1(H396P)-phosphorylated (Homo sapiens, UniProt P00519, H396P)
T2 construct: phosphorylated

[3] = biological target: ALK(L1196M) (Homo sapiens, UniProt Q9UM73, L1196M)
[4] = biological target: BLK (Homo sapiens, UniProt P51451)
[5] = biological target: BMPR1A (Homo sapiens, UniProt P36894)
[6] = biological target: CAMK4 (Homo sapiens, UniProt Q16566)
[7] = biological target: CDK3 (Homo sapiens, UniProt Q00526)
[8] = biological target: FLT3(N841I) (Homo sapiens, UniProt P36888, N841I)
[9] = biological target: GSK3B (Homo sapiens, UniProt P49841)
[10] = biological target: KIT(A829P) (Homo sapiens, UniProt P10721, A829P)
[11] = biological target: T3, LZK (Homo sapiens, UniProt O43283)
T3 construct: gene MAP3K13

[12] = biological target: MST1R (Homo sapiens, UniProt Q04912)
[13] = biological target: MYLK2 (Homo sapiens, UniProt Q9H1R3)
[14] = biological target: T4, PFTK1 (Homo sapiens, UniProt O94921)
T4 construct: gene CDK14

[15] = biological target: PIK3CA(E542K) (Homo sapiens, UniProt P42336, E542K)
[16] = biological target: T5, RPS6KA5(Kin.Dom.2-C-terminal) (Homo sapiens, UniProt O75582)
T5 construct: Kin.Dom.2-C-terminal

[17] = biological target: T6, S6K1 (Homo sapiens, UniProt P23443)
T6 construct: gene RPS6KB1

[18] = biological target: T7, SGK (Homo sapiens, UniProt O00141)
T7 construct: gene SGK1

[19] = biological target: T8, SNARK (Homo sapiens, UniProt Q9H093)
T8 construct: gene NUAK2
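Note: KINOMEscan kinase panel binding assay, signal normalized between DMSO as 100% and a positive control compound as 0%.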

KIT(A829P), sequence (P10721 whole entry A829P): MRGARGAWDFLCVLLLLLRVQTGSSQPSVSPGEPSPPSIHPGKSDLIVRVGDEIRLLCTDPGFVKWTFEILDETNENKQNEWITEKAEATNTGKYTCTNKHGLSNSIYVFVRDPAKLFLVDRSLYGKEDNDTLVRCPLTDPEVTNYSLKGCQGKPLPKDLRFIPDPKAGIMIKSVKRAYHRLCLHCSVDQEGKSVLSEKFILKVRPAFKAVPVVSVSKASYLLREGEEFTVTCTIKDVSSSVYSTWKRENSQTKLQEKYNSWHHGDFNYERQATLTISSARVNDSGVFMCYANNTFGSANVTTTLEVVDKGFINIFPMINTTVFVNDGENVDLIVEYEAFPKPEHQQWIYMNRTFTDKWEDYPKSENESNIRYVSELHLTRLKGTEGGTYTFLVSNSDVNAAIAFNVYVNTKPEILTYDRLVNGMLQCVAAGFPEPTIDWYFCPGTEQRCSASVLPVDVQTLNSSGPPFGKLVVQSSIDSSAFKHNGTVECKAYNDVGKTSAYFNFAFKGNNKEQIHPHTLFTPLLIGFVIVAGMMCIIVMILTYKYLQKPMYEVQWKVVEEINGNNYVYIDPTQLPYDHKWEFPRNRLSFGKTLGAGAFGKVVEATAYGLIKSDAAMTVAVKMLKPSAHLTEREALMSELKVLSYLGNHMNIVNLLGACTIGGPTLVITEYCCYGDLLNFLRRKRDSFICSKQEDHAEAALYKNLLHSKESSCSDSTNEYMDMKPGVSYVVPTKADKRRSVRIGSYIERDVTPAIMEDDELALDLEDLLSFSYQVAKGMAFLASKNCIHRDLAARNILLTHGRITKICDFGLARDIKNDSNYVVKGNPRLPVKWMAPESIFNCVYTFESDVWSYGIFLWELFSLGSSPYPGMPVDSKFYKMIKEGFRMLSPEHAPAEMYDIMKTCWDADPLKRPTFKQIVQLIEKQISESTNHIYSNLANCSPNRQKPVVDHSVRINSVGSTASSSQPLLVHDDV
T8 sequence (Q9H093 whole entry): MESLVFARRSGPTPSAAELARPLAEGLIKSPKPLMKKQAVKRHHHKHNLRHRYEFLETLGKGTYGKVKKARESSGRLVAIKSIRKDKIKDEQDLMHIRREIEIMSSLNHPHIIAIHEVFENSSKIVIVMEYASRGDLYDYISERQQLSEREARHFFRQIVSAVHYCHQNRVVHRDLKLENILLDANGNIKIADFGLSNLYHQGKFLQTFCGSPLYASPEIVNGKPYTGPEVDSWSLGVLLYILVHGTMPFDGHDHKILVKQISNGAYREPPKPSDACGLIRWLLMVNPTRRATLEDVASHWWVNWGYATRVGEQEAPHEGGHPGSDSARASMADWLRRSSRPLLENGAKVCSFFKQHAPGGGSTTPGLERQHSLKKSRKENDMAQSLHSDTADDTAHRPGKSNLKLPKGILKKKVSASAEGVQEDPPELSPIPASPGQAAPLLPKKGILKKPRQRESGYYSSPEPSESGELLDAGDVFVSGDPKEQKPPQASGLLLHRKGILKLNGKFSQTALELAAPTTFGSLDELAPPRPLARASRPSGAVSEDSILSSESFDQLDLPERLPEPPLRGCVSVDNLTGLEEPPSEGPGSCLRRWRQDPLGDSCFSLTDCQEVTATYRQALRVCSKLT
T3 sequence (O43283 whole entry): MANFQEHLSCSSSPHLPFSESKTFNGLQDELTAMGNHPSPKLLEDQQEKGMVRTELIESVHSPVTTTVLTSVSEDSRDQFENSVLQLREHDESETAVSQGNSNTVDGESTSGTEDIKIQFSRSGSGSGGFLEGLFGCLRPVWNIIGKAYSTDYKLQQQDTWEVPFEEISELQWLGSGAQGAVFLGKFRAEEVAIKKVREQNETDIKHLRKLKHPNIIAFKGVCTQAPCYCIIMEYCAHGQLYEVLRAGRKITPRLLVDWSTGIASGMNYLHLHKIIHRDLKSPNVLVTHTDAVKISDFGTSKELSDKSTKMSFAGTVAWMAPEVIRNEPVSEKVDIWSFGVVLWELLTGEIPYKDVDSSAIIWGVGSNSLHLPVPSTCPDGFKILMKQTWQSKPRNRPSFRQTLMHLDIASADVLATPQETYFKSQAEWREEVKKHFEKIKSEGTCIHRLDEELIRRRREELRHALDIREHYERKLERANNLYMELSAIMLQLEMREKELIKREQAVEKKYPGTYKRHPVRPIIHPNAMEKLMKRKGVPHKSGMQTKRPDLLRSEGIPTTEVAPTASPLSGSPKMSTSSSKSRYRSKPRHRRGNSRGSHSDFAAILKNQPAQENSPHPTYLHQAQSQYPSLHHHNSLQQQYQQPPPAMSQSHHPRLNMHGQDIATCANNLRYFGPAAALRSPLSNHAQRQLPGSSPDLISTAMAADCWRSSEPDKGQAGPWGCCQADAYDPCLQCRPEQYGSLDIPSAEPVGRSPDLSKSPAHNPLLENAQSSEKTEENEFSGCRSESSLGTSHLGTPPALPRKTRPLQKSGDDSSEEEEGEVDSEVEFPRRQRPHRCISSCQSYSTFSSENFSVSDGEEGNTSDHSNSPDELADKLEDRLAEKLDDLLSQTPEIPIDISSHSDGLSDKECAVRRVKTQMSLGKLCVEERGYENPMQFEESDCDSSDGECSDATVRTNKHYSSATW
T4 sequence (O94921 whole entry): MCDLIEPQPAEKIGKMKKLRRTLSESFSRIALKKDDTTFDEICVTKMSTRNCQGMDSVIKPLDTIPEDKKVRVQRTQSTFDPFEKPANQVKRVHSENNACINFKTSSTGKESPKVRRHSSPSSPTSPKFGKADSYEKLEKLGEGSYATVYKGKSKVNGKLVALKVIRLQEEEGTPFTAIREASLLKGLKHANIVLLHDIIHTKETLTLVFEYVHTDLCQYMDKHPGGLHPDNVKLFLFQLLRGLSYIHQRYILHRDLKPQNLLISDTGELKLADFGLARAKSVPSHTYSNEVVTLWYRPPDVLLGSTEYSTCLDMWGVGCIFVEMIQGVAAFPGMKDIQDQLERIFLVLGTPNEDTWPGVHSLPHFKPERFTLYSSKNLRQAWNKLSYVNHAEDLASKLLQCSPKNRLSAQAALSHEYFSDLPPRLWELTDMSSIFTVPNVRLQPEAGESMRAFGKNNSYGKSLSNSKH
MYLK2, sequence (Q9H1R3 whole entry): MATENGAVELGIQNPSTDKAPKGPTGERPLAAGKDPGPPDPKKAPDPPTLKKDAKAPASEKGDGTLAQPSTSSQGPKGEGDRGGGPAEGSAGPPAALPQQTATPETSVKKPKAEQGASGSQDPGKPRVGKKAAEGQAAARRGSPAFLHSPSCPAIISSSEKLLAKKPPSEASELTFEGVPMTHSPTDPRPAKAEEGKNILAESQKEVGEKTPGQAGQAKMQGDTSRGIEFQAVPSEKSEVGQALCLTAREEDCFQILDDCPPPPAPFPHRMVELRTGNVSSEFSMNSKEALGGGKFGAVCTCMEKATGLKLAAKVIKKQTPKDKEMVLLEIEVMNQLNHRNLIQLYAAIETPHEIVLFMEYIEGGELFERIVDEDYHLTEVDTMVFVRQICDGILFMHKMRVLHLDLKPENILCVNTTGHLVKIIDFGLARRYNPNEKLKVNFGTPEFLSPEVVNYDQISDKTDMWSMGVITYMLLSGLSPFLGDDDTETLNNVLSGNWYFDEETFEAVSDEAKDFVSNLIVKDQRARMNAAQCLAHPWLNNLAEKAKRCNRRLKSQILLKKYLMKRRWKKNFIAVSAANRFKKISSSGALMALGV
BLK, sequence (P51451 whole entry): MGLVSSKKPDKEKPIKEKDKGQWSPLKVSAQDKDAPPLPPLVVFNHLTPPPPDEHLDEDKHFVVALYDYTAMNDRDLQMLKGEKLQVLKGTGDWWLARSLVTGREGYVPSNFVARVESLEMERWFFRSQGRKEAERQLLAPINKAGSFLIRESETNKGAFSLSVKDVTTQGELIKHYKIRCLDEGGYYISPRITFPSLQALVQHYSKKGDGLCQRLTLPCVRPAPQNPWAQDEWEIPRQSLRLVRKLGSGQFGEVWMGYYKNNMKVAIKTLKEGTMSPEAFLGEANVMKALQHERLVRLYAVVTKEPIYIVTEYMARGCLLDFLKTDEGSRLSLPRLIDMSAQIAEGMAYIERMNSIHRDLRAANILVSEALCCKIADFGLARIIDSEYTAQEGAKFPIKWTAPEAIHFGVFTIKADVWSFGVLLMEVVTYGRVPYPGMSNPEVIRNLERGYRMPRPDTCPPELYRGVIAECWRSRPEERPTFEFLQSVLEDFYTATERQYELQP
CAMK4, sequence (Q16566 whole entry): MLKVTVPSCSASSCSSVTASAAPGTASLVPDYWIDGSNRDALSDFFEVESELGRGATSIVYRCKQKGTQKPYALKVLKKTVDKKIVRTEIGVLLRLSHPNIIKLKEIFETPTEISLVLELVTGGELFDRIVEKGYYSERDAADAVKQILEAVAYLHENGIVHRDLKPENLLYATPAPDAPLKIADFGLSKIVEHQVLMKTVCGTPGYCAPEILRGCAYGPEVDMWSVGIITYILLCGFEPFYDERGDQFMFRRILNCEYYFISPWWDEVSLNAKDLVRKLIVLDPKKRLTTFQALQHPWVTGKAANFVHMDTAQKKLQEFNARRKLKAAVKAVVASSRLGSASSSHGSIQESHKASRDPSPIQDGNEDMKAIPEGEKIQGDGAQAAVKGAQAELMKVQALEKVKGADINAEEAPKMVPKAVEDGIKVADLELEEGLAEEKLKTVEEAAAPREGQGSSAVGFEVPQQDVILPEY
T7 sequence (O00141 whole entry): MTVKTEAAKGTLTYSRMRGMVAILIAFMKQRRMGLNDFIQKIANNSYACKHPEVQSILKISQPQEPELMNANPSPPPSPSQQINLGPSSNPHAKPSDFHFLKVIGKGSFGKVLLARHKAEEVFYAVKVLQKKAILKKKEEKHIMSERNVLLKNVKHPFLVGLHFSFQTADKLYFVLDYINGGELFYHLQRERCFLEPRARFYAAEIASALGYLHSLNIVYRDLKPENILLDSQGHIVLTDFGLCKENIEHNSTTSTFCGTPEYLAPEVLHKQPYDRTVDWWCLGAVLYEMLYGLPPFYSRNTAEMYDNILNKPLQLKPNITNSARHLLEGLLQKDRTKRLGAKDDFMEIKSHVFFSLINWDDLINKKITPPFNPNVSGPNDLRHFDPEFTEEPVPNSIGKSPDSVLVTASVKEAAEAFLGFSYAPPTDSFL

Cc1cnc2nc1Nc1cccc(c1)COCc1cc(ccc1OCCN1CCCC1)N2 [Compound 1]
remaining binding at 0.1 µM [1]: 70% | remaining binding at 0.1 µM [2]: 83% | remaining binding at 0.1 µM [3]: 60% | remaining binding at 0.1 µM [4]: 76% | remaining binding at 0.1 µM [5]: 97% | remaining binding at 0.1 µM [6]: 100% | remaining binding at 0.1 µM [7]: 91% | remaining binding at 0.1 µM [8]: 3.5% | remaining binding at 0.1 µM [9]: 84% | remaining binding at 0.1 µM [10]: 45% | remaining binding at 0.1 µM [11]: 63% | remaining binding at 0.1 µM [12]: 100% | remaining binding at 0.1 µM [13]: 100% | remaining binding at 0.1 µM [14]: 84% | remaining binding at 0.1 µM [15]: 89% | remaining binding at 0.1 µM [16]: 100% | remaining binding at 0.1 µM [17]: 98% | remaining binding at 0.1 µM [18]: 75% | remaining binding at 0.1 µM [19]: 36%
